Results from patent EP0426075A1, “Benzylpyrrolidine derivatives as dopamine agonists” (SYNTEX (U.S.A.) INC., priority 1989, dated 1991).

Tests used:
DA2 receptor = assay: Goldberg in situ femoral arterial preparation (DA2 assay), intra-arterial injection; assay type: in vivo, dog; settings: optimal response of test compound divided by optimal response of DPDA
Protocol: (§1) The compounds were subsequently tested following intra-arterial administration in an in situ renal and femoral arterial preparation in the dog, as developed by L.I. Goldberg, to test for DA1 and DA2 dopamine activity, respectively. Details of the methodology are provided in the European J. Pharmacol. 89 :137, 1983, as well as in Hypertension 6 :1-25, 1984.
as §1, with “compounds of this invention” for “compounds”, “were” for “were subsequently”, “Pharmacol. ,” for “Pharmacol.”, “Hypertension ,” for “Hypertension”, “1984. J. L. McNay, L. I. Goldberg JPET 151 :23-31, 1966.” for “1984.”
(§2) The compounds were injected directly into the renal or femoral artery for analysis of DA, or DA2 activity, respectively. […] The compounds were tested for relative activity in comparison to the standard DA, agonist, dopamine or the standard DA2 agonist, DPDA. Specific DA, or DA2 activity of the tested compound was verified by Sch 23390 or domperidone blockade.
(§3) Adult mongrel dogs of either sex (12-20 kg) were anesthetized with pentobarbital sodium (33 mg/kg, i.v.). The animals were intubated and ventilated with room air using a Harvard respirator.
as §1, with “compounds of this invention” for “compounds”, “were” for “were subsequently”, “Pharmacol. ,” for “Pharmacol.”, “Hypertension ,” for “Hypertension”, “1984. J. L. McNay, L. I. Goldberg JPET 151 :23-31, 1966” for “1984.”
as §2, with “of DA1” for “of DA,”, “standard DA1” for “standard DA,”
The thoracic aorta was catheterized with a Millar micro-tip (size 5F) transducer via the right carotid artery for blood pressure monitoring. The right external jugular vein was cannulated with PE-160 tubing for supplemental pentobarbital administration. The left femoral artery was isolated and an electromagnetic flowprobe of the appropriate size (8-11 mm circ.) was placed around the artery and connected to a Caroline Medical electromagnetic flowmeter. Surface ECG leads were placed subcutaneously on the chest and limbs to monitor heart rate. A 25 gauge 3/4" needle bent 90` , 4 mm from the tip, was placed in the femoral artery proximal to the probe and connected to an infusion pump delivering saline at a constant rate of 1 ml/min. Following a saline and bradykinin challenge (0.02 to 0.04 nmoles, in 0.2 ml saline, i.a.), a dose response curve for DPDA was generated by injecting 4-fold increasing doses i.a. ranging from 3 to 48 nmoles in 0.2 ml saline. Test compounds were injected similarly in 4-fold increasing doses up to 3000 nmoles. Compounds were then repeated at their optimal dose following domperidone pretreatment (10-40 Ilg/kg, iv).
Efficacy ratios were determined by division of the optimal response of the test compound by the optimal response of the standard agent. The optimal dose of compound was defined as that which produced a maximum increase in blood flow before causing a change in systemic blood pressure. ED50 values were derived by regression analysis from individually generated dose response curves. Potency ratios were the quotients calculated from the division of the standard agent EDso by the ED50 of the test compound. […] If the inhibition of the test compound was similar to that of dopamine or DPDA, the compound was considered to be a DA, or DA2 agonist, respectively.

DA1 receptor = assay: Goldberg in situ renal arterial preparation (renal DA1 assay), intra-arterial injection; assay type: in vivo, dog; settings: optimal response of test compound divided by optimal response of dopamine
Protocol: as §1
as §1, with “compounds of this invention” for “compounds”, “were” for “were subsequently”, “Pharmacol. ,” for “Pharmacol.”, “Hypertension ,” for “Hypertension”, “1984. J. L. McNay, L. I. Goldberg JPET 151 :23-31, 1966.” for “1984.”
as §2, §3
as §1, with “compounds of this invention” for “compounds”, “were” for “were subsequently”, “Pharmacol. ,” for “Pharmacol.”, “Hypertension ,” for “Hypertension”, “1984. J. L. McNay, L. I. Goldberg JPET 151 :23-31, 1966” for “1984.”
as §2, with “of DA1” for “of DA,”, “standard DA1” for “standard DA,”
The abdominal aorta was catheterized with a Millar micro-tip (size: 5F) transducer via the right femoral artery for blood pressure monitoring. The right femoral vein was cannulated with PE-160 tubing for iv saline infusion, as well as supplemental pentobarbital administration. The left renal artery was isolated through a lateral abdominal incision. An electromagnetic flowprobe of the appropriate size (8-11 mm circ.) was placed around the artery and connected to a Carolina Medical electromagnetic flowmeter. Surface ECG leads were placed subcutaneously on the chest and limbs to monitor heart rate. A 25 gauge 3/4" needle bent 90°, 4 mm from the tip, was placed in the renal artery proximal to the probe and connected to an infusion pump delivering saline at a constant rate of 1 ml/min. Following a saline and 1µg norepinephrine (NE) challenge, both given in an injection volume of 0.2 ml, the animal was treated with a phenoxybenzamine, 0.5 mg/kg/min i.a., infusion for a duration of 10-20 minutes as necessary to achieve a complete blockade of the NE challenge. Blood pressure was maintained by supplemental saline infusion (10-20 ml/kg, iv). Bradykinin, a standard for nonspecific vasodilation, was given at 0.60 nmole doses, in 0.2 ml saline, i.a., prior to generating a dose response curve for dopamine in which 4-fold increasing doses, ranging from 3 to 48 nmoles, were injected i.a. in 0.2 ml of saline (i.a. bolus). Test compounds were injected similarly in 4-fold increasing doses up to a maximum of 3000 nmoles. Compounds were then repeated at their optimal dose following Sch 23390 pretreatment (0.05 - 0.10 mg/kg, iv).
Efficacy ratios were determined by division of the optimal response of the test compound by the optimal response of the standard agent.

SMILES: CCCN(CCC)CCc1ccc(O)c(O)c1 [DPDA, di-propyl dopamine, reference compound]
- Relative Efficacy to DA2 Standard (DA2 receptor): 1.00

SMILES: Cl.NCCc1ccc(O)c(O)c1 [Dopamine, 4-(2-aminoethyl)-1,2-Benzenediol hydrochloride]
- Relative Efficacy to DA1 Standard (DA1 receptor): 1.00
